Converted amounts (≈) assume the structure as drawn.
Tests used:
[1] = added to a standard therapy for adults with severe heart failure; cited from earlier work
[2] = reported in Pramar et al.; cited from earlier work
[3] = Pramar et al.; cited from earlier work
[4] = sorbic acid and sorbate; cited from earlier work
[5] = Dissolution, USP <711>; format: physicochemical; conditions: USP <711> dissolution study
Procedure: Dissolution was measured in a manner consistent with USP <711> reporting the amount of dissolved spironolactone as a percent of labeled content with an associated relative standard devision (“RSD”).

[6] = Particle size by laser diffraction; format: physicochemical; conditions: spironolactone solid prior to composition manufacture
Procedure: Particle size measurements were performed on spironolactone (prior to composition manufacture) and on the particulate matter present in the compositions described herein by laser diffraction. The reported particle sizes D(v, 0.1), D(v, 0.5), and D(v, 0.9) relate to the mass median diameter (in μm) of the volume of distribution of the given particles. […] Alternatively, particle size can be estimated using optical microscopy.

| Structure (SMILES) | labeled content dissolved at 5-minutes [5] | particle size D(v, 0.5) [6] | particle size D(v, 0.9) [6] | further results |
| --- | --- | --- | --- | --- |
| CC(=O)S[C@@H]1CC2=CC(=O)CC[C@]2(C)[C@H]2CC[C@@]3(C)[C@@H](CC[C@@]34CCC(=O)O4)[C@H]12 [Spironolactone] |  |  |  | reduction in mortality [1]: 30%; aqueous solubility [2]: 28 µg/mL (≈ 67.2 µM); pH at which spironolactone exhibits maximum stability [3]: 4.5 |
| C/C=C/C=C/C(=O)O [sorbic acid] |  |  |  | equilibrium pKa-value [4]: about 4.8 |
| CC(=O)S[C@@H]1CC2=CC(=O)CC[C@]2(C)[C@H]2CC[C@@]3(C)[C@@H](CC[C@@]34CCC(=O)O4)[C@H]12 [unmicronized spironolactone, spironolactone] | about 50 % of labeled content | 18.3 µm | 35.5 µm | particle size D(v, 0.1) [6]: 7.47 µm |
| CC(=O)S[C@@H]1CC2=CC(=O)CC[C@]2(C)[C@H]2CC[C@@]3(C)[C@@H](CC[C@@]34CCC(=O)O4)[C@H]12 [micronized spironolactone, spironolactone] | about 90 % of labeled content | about 3.64 m | about 9.42 m |  |
